In US20260256716A1, “COMPOSITIONS AND METHODS OF USE THEREOF” (Board of Supervisors of Louisiana State University and …, priority 2023, published 2026):

Tests used:
Format in all cases: cell-based, human
[1] = tested on: phosphorylated myosin light chain; experiment: Western blot of phosphorylated myosin light chain (MLC) in ARPE-19 cells under hyperglycemic conditions; conditions: ARPE-19, DMEM High glucose 7% FCS overnight; 10 nM; western blot
Description: A Hallmark of Age-Associated Ocular and Neurodegenerative Disorders is Cytoskeletal Alteration and Induction of CONTRACTILE Stress Fiber Formation. Expression and activation via phosphorylation of Myosin Light Chain (MLC), is a biomarker of disease development. ARPE-19 cells and ARPE-19 cells specifying 5-HT2AR knockouts were plated in nutrient rich media (DMEM; 7% FCS) overnight. Cells were fixed, permeabilized, and stained phalloidin and α-phosphorylated-Myosin light chain. Cytoskeletal elements were then visualized by fluorescent microscopy to visualize actin fiber cytoskeletal structures (phalloidin, red) and contractile phosphorylated myosin light chain (green) via fluorescent microscopy. […] ARPE-19 cells were cultured under hyperglycemic conditions in nutrient rich media (DMEM High glucose; 7% FCS) overnight either in the absence or presence of 5-HT2A receptor agonists R-DOI and 2CiBu at 10 nm or 100 nM concentrations. The relative expression of the activated disease biomarker contractile phosphorylated myosin light chain was determined using specific antibodies and western blot analysis. 5-HT2A agonists. […] Therefore, 5-HT2A agonism at low concentrations have the potential to prevent and reverse deleterious cytoskeletal events that can be induced under hyperglycemic conditions, such as in diabetics.
This can be consistent with 2C-iBu being able to regulate IOP and that 5HT2A agonists prevented edema formation and disruption of corneal architecture in a model of herpetic keratitis.

ARPE cells = experiment: Mitochondrial morphology by fluorescent microscopy in ARPE cells expressing mitochondrial red/green fluorescent protein; conditions: 100 nM, 50 nM or 10 nM; 48 hours post treatment
Description: Representative 5-HT2A Receptor Agonist, R-DOI, Increases Mitochondrial Biogenesis and Quality by Inducing Mitochondrial Fusion at low nM concentrations thereby reversing adverse processes that underlie development and progression of the Pathophysiology of Age-Associated Ocular and Neurodegenerative Diseases. ARPE cells transfected with plasmids that express either a red or green fluorescent protein biomarker that marks mitochondria were plated and treated with R-DOI @100 nM, 50 nM or 10 nM. 48 hours post treatment, mitochondrial morphology was evaluated by fluorescent microscopy.
• Fluorescent dyes limit researchers to study in a static manor due to fixation. We engineered a plasmid expressing mitochondrial localized AcGFP1/dsRed2. […]

NRF-2 = experiment: Western blot of NRF-2 expression in ARPE cells after H2O2 oxidative stress; conditions: 1000 nM to 1 nM overnight, then H2O2, 24 hours, lower doses highest
Description: ARPE cells were plated and treated with 10-fold dilutions of R-DOI from 1000 nM to 1 nM. Following an overnight treatment, cells were incubated with hydrogen peroxide (H2O2) to mimic an oxidative stress induced disease event. 24 hours later, cell lysates were collected and protein levels were normalized among samples and run on a western blot for comparison of NRF-2 expression relative to a cellular protein loading control, b-actin. While doses increased protective NRF-2 expression, lower doses increased NRF-2 to the highest levels, accentuating the need for appropriate dose ranges in facilitating treatment effects.

In the case of COc1cc(C[C@@H](C)N)c(OC)cc1I (single isomer, unassigned) [R-DOI, R enantiomer 2,5-Dimethoxy-4-iodoamphetamine], the “hyperglycemia induced phosphorylated MLC levels” value [1] is reported as “suppressed hyperglycemia induced phosphorylated MLC levels”, the “mitochondrial biomass and morphology” value (ARPE cells) is reported as “increased mitochondrial biomass with a non-fragmented fused morphology” and the NRF-2 expression (NRF-2) is reported as “Increases Expression of the master regulator of antioxidant gene expression NRF-2”. The NRF-2 expression (NRF-2; listed as (R)-DOI) was “Upregulates Expression of NRF-2”.
